Measured values from patent US12037346B2, “Amino-substituted heteroaryls for treating cancers with EGFR mutations” (Nuvalent, Inc., priority 2021, dated 2024).
Each block holds one compound with its values, some of them ahead of it.

Assays:
[1] = system: A431 cells (amplification of the wild-type EGFR gene), phospho-ERK Thr202/Tyr204; experiment: Cellular phosphorylation assay, pERK (phospho-ERK Thr202/Tyr204 AlphaLISA) in A431; type: cell-based; details: Homo sapiens, A-431, compound incubated for 5 hours
Summary of the method: (§1)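 Cells (12,500/well) plated 1 day, then exposed to 3-fold compound dilutions for 5 h; for pEGFR only, A431 stimulated with EGF 30 ng/mL for 15 min. Lysates read by AlphaLISA for pHER2 Tyr1221/1222, pEGFR Tyr1068 or pERK Thr202/Tyr204; IC50 from percent inhibition by four-parameter logistic fit.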

[2] = target: Ba/F3 HER2-YVMA cells (HER2-A775_G776insYVMA) (Homo sapiens, UniProt P04626, DUP772-775, cells depend on it); experiment: Cell proliferation assay (CellTiter-Glo), Ba/F3 HER2-YVMA; type: cell-based; details: read-out: Ba/F3 HER2-YVMA cell proliferation IC50
Summary of the method: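 Ba/F3 cells stably expressing HER2-YVMA (IL-3-independent, puromycin-selected monoclones) seeded 1,000 cells/well, 1 day before 3-fold compound dilutions; incubated 48 h, 72 h, or 48 h then fresh compound and further 72 h. Viability by CellTiter-Glo luminescence; IC50 from percent inhibition by four-parameter logistic fit, first inflexion only where applicable.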

[3] = target: T1, wild-type EGFR (A431 cells) (Homo sapiens, UniProt P00533); experiment: Cellular phosphorylation assay, pEGFR (phospho-EGFR Tyr1068 AlphaLISA) in A431; type: cell-based; details: compound incubated for 5 hours, EGF (30 ng/mL) for 15 minutes
T1 construct: A431 bears amplification of the wild-type EGFR gene; endogenous in cells; host or cells: A431
Summary of the method: as §1

[4] = target: T2, HER2-A775_G776insV-G776C (NCI-H1781 cells) (Homo sapiens, UniProt P04626, G776C/INS775V); experiment: Cellular phosphorylation assay, pHER2 (phospho-ErbB2 Tyr1221/1222 AlphaLISA) in NCI-H1781; type: cell-based; details: compound incubated for 5 hours
T2 construct: NCI-H1781 is a HER2 exon20 insertion cell line bearing HER2-A775_G776insV-G776C; endogenous in cells; host or cells: NCI-H1781
Procedure: (§2) Besides Ba/F3s, two commercially available cell lines were also used. NCI-H1781 is a HER2 exon20 insertion cell line bearing HER2-A775_G776insV-G776C. A431 bears amplification of the wild-type EGFR gene.
Ba/F3 cells were plated at 50,000 cells/well (40 μL), or NCI-H1781 cells or A431 cells were plated at 12,500 cells/well (40 μL), in a 384-well plate for 1 day. Test compounds (40 nL) were then added in a 3-fold dilution series using the TECAN EV0200 liquid handler and incubated for 5 hours. Only for pEGFR analysis in A431, the cells were briefly stimulated with EGF (30 ng/mL) for 15 minutes. Media were removed using Apricot Designs. Phosphoproteins were analyzed using the phospho-EGFR Tyr1068 AlphaLISA kit (“pEGFR”; PerkinElmer #ALSU-PEGFR-B10K;) phospho-ERK Thr202/Tyr204 AlphaLISA kit (“pERK”; PerkinElmer #ALSU-PERK-A10K) or the phospho-ErbB2 Tyr1221/1222 AlphaLISA kit (“pHER2”; PerkinElmer #ALSU-PEB2-A10K;) according to the manufacturer's instructions. Briefly, cells were lysed with lysis buffer (10 μL) containing protease-inhibitor and phosphatase-inhibitor cocktails. The lysates were transferred into a new optical plate, incubated with the acceptor mix (5 μL) for 1.5-2 hours at room temperature in darkness, and then mixed with the donor mix (5 μL) overnight in darkness. Fluorescence was measured on a plate reader using the appropriate AlphaLISA settings. Half-maximal inhibitory concentration (IC50) was calculated from percent inhibition and inhibitor concentration using four-parameter logistic regression.
HER2 is phosphorylated when activated. Therefore, phospho-HER2 indicates HER2 activity in the cells.

[5] = system: NCI-H1781 cells (HER2-A775_G776insV-G776C); experiment: Cell proliferation assay (CellTiter-Glo), NCI-H1781; type: cell-based; details: first inflexion of biphasic curve
Procedure: as §2
Ba/F3 cells were plated at 1,000 cells/well (40 μL), or NCI-H1781 or A431 cells were plated at 2,000 cells/well (40 μL), in a 384-well plate for 1 day. Test compounds (40 nL) were then added in a 3-fold dilution series using the TECAN EV0200 liquid handler and incubated for 48 hours (“2 days”), 72 hours (“3 days”), or 48 hours followed by renewal of compound solutions and further incubation for 72 hours (“2 days/3 days”). The 72-hour assay was necessary for NCI-H1781 cells, which are slow-growing, and the resupply of fresh compounds on day 3 obviated the potential confounding effects arising from compound degradation in cell media over 72 hours. Plates were equilibrated at room temperature for 15 minutes followed by addition of 40 μL CellTiter-Glo reagent (Promega). Luminescence was measured on a plate reader. Half-maximal inhibitory concentration (IC50) was calculated from percent inhibition and inhibitor concentration using four-parameter logistic regression. […] In these cases, the regression curve was drawn only for the first inflexion to accurately measure on-target growth inhibitory effect.
Ba/F3, NCI-H1781, and A431 proliferation is driven by the oncogenes in the same way that cancer cell proliferation in humans is driven by the expression of equivalent oncogenes.

HER2 = HER2 (Homo sapiens, UniProt P04626); details: cited from earlier work
Sequence of HER2 (P04626 23-1255): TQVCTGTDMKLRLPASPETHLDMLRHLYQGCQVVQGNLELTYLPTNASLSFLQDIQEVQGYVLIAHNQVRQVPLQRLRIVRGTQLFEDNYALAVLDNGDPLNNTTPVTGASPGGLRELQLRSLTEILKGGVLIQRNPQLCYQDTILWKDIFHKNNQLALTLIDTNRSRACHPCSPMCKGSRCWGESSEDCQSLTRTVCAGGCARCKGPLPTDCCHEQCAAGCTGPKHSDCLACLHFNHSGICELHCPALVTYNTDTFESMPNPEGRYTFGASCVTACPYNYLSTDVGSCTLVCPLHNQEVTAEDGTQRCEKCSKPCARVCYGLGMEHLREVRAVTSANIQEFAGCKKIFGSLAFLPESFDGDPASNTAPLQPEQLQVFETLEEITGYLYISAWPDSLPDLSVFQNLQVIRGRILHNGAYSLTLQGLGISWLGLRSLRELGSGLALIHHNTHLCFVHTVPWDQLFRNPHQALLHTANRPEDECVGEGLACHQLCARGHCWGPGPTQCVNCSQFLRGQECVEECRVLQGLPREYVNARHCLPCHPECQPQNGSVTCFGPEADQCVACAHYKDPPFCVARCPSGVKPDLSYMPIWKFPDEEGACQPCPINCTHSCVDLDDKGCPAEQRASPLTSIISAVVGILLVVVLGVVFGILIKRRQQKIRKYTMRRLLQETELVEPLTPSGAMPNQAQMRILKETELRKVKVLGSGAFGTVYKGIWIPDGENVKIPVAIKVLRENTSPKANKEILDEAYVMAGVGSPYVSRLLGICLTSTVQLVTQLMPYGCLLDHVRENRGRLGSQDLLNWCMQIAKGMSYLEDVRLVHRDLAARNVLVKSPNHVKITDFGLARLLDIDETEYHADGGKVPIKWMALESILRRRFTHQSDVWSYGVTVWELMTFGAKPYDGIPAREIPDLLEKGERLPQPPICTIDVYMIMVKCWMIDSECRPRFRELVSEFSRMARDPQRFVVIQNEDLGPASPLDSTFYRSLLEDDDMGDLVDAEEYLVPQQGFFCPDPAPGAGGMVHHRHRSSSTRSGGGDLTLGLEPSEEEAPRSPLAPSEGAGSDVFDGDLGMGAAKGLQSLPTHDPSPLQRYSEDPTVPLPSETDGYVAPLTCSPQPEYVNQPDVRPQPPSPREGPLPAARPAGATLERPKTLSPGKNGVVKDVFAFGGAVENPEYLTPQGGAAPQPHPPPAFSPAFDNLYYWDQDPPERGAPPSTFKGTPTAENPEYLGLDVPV

T2 sequence (P04626 with tags, fused parts or gaps INS775V/G776C): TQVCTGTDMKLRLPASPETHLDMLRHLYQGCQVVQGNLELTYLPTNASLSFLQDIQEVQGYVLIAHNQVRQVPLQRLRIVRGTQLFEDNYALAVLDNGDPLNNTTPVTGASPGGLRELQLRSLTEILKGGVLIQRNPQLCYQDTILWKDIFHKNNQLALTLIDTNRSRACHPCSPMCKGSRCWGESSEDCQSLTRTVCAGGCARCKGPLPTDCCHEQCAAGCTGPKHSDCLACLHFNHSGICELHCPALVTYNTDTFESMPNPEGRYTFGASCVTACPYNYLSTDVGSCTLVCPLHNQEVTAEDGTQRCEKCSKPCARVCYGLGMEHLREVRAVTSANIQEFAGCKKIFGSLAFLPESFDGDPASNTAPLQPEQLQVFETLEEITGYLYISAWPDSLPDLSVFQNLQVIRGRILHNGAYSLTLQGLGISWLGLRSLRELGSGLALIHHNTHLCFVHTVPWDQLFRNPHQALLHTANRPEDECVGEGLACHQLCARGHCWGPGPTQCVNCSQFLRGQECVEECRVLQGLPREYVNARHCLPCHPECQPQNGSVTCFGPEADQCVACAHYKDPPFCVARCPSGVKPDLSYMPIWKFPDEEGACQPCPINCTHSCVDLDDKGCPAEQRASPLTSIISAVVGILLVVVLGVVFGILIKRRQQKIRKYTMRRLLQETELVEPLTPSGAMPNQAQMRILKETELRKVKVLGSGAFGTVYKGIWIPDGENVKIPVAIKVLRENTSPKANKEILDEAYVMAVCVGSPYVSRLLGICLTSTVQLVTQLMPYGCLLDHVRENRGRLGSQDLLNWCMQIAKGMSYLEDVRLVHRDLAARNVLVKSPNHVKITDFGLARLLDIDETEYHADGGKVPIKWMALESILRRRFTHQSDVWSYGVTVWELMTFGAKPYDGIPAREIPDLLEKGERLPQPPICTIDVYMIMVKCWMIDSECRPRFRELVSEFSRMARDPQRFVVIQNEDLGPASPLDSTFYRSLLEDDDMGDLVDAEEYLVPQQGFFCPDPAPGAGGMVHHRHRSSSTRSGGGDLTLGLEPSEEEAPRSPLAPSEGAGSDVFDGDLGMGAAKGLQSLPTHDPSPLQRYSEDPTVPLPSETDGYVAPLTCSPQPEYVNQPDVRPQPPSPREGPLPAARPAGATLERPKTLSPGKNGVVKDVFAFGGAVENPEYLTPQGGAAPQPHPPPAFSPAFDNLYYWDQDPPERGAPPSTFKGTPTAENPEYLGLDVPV
Sequence of Ba/F3 HER2-YVMA cells (HER2-A775_G776insYVMA) (P04626 with tags, fused parts or gaps DUP772-775): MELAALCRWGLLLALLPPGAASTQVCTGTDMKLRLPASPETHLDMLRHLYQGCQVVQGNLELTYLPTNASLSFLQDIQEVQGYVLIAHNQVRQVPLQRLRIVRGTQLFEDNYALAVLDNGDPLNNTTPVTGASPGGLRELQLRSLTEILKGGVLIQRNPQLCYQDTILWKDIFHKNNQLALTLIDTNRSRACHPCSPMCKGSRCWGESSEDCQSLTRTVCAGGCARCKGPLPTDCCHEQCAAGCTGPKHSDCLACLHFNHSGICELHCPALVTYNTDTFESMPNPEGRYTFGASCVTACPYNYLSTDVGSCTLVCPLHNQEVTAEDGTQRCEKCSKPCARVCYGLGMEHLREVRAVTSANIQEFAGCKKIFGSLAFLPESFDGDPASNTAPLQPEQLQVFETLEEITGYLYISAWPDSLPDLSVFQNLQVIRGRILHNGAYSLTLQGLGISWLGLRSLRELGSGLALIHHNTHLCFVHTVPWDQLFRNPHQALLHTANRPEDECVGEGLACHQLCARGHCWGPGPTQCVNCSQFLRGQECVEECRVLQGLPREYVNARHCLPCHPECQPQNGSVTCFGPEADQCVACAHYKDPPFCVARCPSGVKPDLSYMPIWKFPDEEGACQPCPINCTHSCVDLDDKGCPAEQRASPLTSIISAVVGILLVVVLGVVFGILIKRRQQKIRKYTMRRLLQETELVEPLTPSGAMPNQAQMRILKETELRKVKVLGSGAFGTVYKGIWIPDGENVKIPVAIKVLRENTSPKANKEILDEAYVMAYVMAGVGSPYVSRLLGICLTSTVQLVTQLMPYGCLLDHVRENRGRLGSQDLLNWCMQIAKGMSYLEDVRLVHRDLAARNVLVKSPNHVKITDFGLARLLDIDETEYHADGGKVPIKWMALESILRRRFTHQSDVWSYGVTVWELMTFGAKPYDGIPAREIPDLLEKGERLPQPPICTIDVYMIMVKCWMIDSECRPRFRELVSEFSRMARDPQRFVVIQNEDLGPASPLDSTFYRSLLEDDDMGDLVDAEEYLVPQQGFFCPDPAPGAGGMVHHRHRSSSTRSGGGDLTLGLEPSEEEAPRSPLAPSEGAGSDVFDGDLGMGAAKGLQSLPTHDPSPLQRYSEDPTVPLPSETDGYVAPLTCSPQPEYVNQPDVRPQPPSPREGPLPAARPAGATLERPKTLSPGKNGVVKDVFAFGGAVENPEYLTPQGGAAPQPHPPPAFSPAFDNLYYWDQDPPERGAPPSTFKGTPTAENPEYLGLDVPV
T1 sequence (P00533 25-1210): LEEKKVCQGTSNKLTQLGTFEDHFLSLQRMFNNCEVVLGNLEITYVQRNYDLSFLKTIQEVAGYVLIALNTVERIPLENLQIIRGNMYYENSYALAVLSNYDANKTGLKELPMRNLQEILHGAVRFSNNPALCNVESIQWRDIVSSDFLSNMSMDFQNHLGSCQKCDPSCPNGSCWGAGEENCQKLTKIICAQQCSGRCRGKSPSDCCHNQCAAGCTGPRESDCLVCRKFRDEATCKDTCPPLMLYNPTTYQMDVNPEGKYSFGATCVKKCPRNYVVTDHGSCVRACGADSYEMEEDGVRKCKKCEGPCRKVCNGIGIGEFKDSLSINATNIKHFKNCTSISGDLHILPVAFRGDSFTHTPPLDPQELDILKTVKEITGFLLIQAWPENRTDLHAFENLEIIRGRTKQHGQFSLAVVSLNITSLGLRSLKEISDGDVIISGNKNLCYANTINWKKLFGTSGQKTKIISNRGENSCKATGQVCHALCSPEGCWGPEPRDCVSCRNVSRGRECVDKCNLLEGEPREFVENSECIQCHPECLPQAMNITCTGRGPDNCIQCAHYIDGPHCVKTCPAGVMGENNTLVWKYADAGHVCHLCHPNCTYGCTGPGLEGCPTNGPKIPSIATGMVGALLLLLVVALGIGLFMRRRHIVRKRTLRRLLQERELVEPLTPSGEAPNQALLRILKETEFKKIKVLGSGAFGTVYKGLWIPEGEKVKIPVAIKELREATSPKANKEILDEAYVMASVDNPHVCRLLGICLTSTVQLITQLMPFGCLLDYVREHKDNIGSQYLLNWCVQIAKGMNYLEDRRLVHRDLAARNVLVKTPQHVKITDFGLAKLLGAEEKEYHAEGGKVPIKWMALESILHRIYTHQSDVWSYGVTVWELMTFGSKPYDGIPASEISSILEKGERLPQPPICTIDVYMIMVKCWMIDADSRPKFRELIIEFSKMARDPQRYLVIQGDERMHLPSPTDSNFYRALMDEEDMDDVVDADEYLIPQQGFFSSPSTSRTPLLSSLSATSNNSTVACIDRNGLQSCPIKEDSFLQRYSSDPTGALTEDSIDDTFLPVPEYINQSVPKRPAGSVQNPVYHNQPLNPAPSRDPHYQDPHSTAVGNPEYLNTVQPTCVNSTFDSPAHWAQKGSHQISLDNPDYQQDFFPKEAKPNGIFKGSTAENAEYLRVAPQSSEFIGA

SMILES: C=CC(=O)N1CC=C(c2ccc3ncnc(Nc4ccc(Oc5ccn6ncnc6c5)c(C)c4F)c3n2)CC1 [Example 5]
IC50 [1]: ≥ 1000 nM
GI50 [2]: < 100 nM
IC50 [3]: ≥ 1000 nM
IC50 [4]: < 100 nM
IC50 [5]: 100 to 500 nM

SMILES: Cc1cc(Nc2ncnc3ccc(NC4=NC(C)(C)CO4)cc23)ccc1Oc1ccn2ncnc2c1 [Tucatinib]
median progression free survival (HER2; compared to placebo (5.6 months)): 7.8 months
median overall survival (HER2; compared to placebo (17.4 months)): 21.9 months
objective response rate (HER2; compared to placebo (23%)): 41%

SMILES: C=CC(=O)N1CC=C(c2ccc3ncnc(Nc4ccc(Oc5ccn6ncnc6c5)c(C)c4)c3n2)CC1 [Example 12]
IC50 [1]: 500 to 1000 nM
GI50 [2]: < 100 nM
IC50 [3]: 500 to 1000 nM
IC50 [4]: < 100 nM
IC50 [5]: < 100 nM

SMILES: CC#CC(=O)N1CC=C(c2ccc3ncnc(Nc4ccc(Oc5ccn6ncnc6c5)c(C)c4)c3n2)CC1 [Example 2, 1-(4-(4-((4-([1,2,4]triazolo[1,5-a]pyridin-7-yloxy)-3-methylphenyl)amino)pyrido[3,2-d]pyrimidin-6-yl)-3,6-dihydropyridin-1(2H)-yl)but-2-yn-1-one]
IC50 [1]: 500 to 1000 nM
GI50 [2]: < 100 nM
IC50 [3]: 500 to 1000 nM
IC50 [4]: < 100 nM
IC50 [5]: < 100 nM

Other lines, results leading:

IC50 [1]: ≥ 1000 nM
GI50 [2]: < 100 nM
IC50 [3]: ≥ 1000 nM
IC50 [4]: < 100 nM
IC50 [5]: < 100 nM
SMILES: C=CC(=O)N1CCN(c2ncc3ncnc(Nc4ccc(Oc5ccn6ncnc6c5)c(C)c4F)c3n2)C[C@@H]1C [Example 49]

IC50 [1]: ≥ 1000 nM
GI50 [2]: < 100 nM
IC50 [3]: 100 to 500 nM
IC50 [4]: < 100 nM
IC50 [5]: < 100 nM
SMILES: Cc1cc(Nc2ncnc3ccc(C4=CCN(C(=O)/C=C/CN(C)C)CC4)nc23)ccc1Oc1ccn2ncnc2c1 [Example 13]

IC50 [1]: ≥ 1000 nM
GI50 [2]: < 100 nM
IC50 [3]: ≥ 1000 nM
IC50 [4]: < 100 nM
IC50 [5]: < 100 nM
SMILES: C=CC(=O)N1CCN(c2ncc3ncnc(Nc4ccc(Oc5ccn6ncnc6c5)c(C)c4F)c3c2F)C[C@H]1C [Example 52]

IC50 [1]: ≥ 1000 nM
GI50 [2]: < 100 nM
IC50 [3]: ≥ 1000 nM
IC50 [4]: < 100 nM
IC50 [5]: < 100 nM
SMILES: C=CC(=O)N1CCN(c2ccc3ncnc(Nc4ccc(Oc5ccn6ncnc6c5)c(C)c4F)c3c2F)C[C@H]1C [Example 53]
